Patent US20220056037A1 (SPV THERAPEUTICS INC., priority 2018, published 2022)

Columns and labels:
Assay in all cases: 2D cell proliferation assay (CellTiter-Blue)
Format in all cases: cell-based
LEXFAM MV4-11 = conditions: Homo sapiens, 72 h; cell line LEXFAM MV4-11; three days of treatment; read-out: IC (abs. IC50)
Protocol: (§1) Viability of the cells was analyzed by using the CellTiter-Blue® Cell Viability Assay (Promega), and was performed according to manufacturer's instructions. Briefly, cells were harvested from exponential phase cultures (Chapter 6.6), counted and plated in 96-well flat-bottom microtiter plates at a cell density of 4,000-60,000 cells/well in a volume of 140 μl per well. After a 24 hours recovery period, 10 μL cell culture medium (six control wells/plate) or culture medium with test compound were added (Chapter 6.2). The compounds were applied at five concentrations in full-log increments up to 100 μM in duplicate. Cultures were incubated at 37° C. and 5% CO2 in a humidified atmosphere for another three days. After three days of treatment, 20 μl/well CellTiter-Blue® reagent was added. Following incubation with CellTiter-Blue® reagent for up to four hours, fluorescence (FU) was measured by using the Enspire Multimode Plate Reader (excitation λ=570 nm, emission λ=600 nm). For calculations, the mean values of duplicate/sextuplicate (untreated control) data were used.
(§2) Drug effects were expressed in terms of the percentage of the fluorescence signal, obtained by comparison of the mean signal in the treated wells with the mean signal of the untreated controls (expressed by the test-versus-control value, T/C-value [%]):
(§3) IC values are reported as relative IC50 values and absolute IC50 and IC70 values. […] The absolute IC70 value gives the concentration of the test compound that achieves T/C=30%. The relative IC50 value is the concentration of test compound that gives a response half way between the top and bottom plateau of the sigmoidal concentration-response curve (inflection point of the curve). Calculation was done by 4parameter non-linear curve fit (Oncotest Data Warehouse Software).
(§4) If an IC50 or IC70 value could not be determined within the examined dose range (because a compound was either too active or lacked activity), the lowest or highest concentration studied was used for calculation of the geometric mean value.
(§5) The overall potency of a compound was determined by the geometric mean IC50/IC70 values of all individual IC50/IC70 values. In the heatmap representation of IC50 and IC70 values, the distribution of the IC50 or IC70 values obtained for a test compound in the individual cell lines is given in relation to the geometric mean […] or IC70 value, obtained over all PDX models tested. The individual IC values range from 1/32-fold geometric mean IC (corresponding to very potent compound activity or high tumor sensitivity) to 32-fold geometric mean IC (corresponding to lack of compound activity or tumor resistance). The heatmap presentation, therefore, represents an antiproliferative “fingerprint” profile of a test compound.

CEXF HeLa = conditions: Homo sapiens, 72 h; cell line CEXF HeLa; three days of treatment; read-out: IC (abs. IC50)
Protocol: as §1, §2, §3, §4, §5

MEXF A2058 = conditions: Homo sapiens, 72 h; cell line MEXF A2058; three days of treatment; read-out: IC (abs. IC50)
Protocol: as §1, §2, §3, §4, §5

OVXF SK-OV-3 = conditions: Homo sapiens, 72 h; cell line OVXF SK-OV-3; three days of treatment; read-out: IC (abs. IC50)
Protocol: as §1, §2, §3, §4, §5

MMXF U-266 = conditions: Homo sapiens, 72 h; cell line MMXF U-266; three days of treatment; read-out: IC (abs. IC50)
Protocol: as §1, §2, §3, §4, §5

MAXFHER BT-474 = conditions: Homo sapiens, 72 h; cell line MAXFHER BT-474; three days of treatment; read-out: IC (abs. IC50)
Protocol: as §1, §2, §3, §4, §5

LIXAH SNU-398 = conditions: Homo sapiens, 72 h; cell line LIXAH SNU-398; three days of treatment; read-out: IC (abs. IC50)
Protocol: as §1, §2, §3, §4, §5

MAXFTN ZR-75-1 (ER +) = conditions: Homo sapiens, 72 h; cell line MAXFTN ZR-75-1 (ER +); three days of treatment; read-out: IC (abs. IC50)
Protocol: as §1, §2, §3, §4, §5

MAXFTN MDA-MB-231 (ER −) = conditions: Homo sapiens, 72 h; cell line MAXFTN MDA-MB-231 (ER −); three days of treatment; read-out: IC (abs. IC50)
Protocol: as §1, §2, §3, §4, §5

LIXAH HLE = conditions: 72 h; cell line LIXAH HLE; three days of treatment; read-out: IC (abs. IC50)
Protocol: as §1, §2, §3, §4, §5

MEXF M14 = conditions: 72 h; cell line MEXF M14; three days of treatment; read-out: IC (abs. IC50)
Protocol: as §1, §2, §3, §4, §5

LXFL NCI-H460 = conditions: Homo sapiens, 72 h; cell line LXFL NCI-H460; three days of treatment; read-out: IC (abs. IC50)
Protocol: as §1, §2, §3, §4, §5

MAXFTN MDA-MB-468 (ER −) = conditions: Homo sapiens, 72 h; cell line MAXFTN MDA-MB-468 (ER −); three days of treatment; read-out: IC (abs. IC50)
Protocol: as §1, §2, §3, §4, §5

BXF 5637 = conditions: 72 h; cell line BXF 5637; three days of treatment; read-out: IC (abs. IC50)
Protocol: as §1, §2, §3, §4, §5

CXF COLO 205 = conditions: Homo sapiens, 72 h; cell line CXF COLO 205; three days of treatment; read-out: IC (abs. IC50)
Protocol: as §1, §2, §3, §4, §5

MEXF MDA-MB-435 = conditions: Homo sapiens, 72 h; cell line MEXF MDA-MB-435; three days of treatment; read-out: IC (abs. IC50)
Protocol: as §1, §2, §3, §4, §5

PRXF LNCaP = conditions: Homo sapiens, 72 h; cell line PRXF LNCaP; three days of treatment; read-out: IC (abs. IC50)
Protocol: as §1, §2, §3, §4, §5

UXF EFE-184 = conditions: Homo sapiens, 72 h; cell line UXF EFE-184; three days of treatment; read-out: IC (abs. IC50)
Protocol: as §1, §2, §3, §4, §5

CN1CCN(c2ccc(Nc3ncc4cc(C(=O)N(C)C)n(C56CC(C5)C6)c4n3)cc2)CC1 [SPV113]
IC50 (LEXFAM MV4-11): ≤ 10 nM | IC50 (CEXF HeLa): 329 nM | IC50 (MEXF A2058): 1510 nM | IC50 (OVXF SK-OV-3): 3150 nM | IC50 (MMXF U-266): 655 nM | IC50 (MAXFHER BT-474): 802 nM | IC50 (LIXAH SNU-398): 148 nM | IC50 (MAXFTN ZR-75-1 (ER +)): 12600 nM | IC50 (MAXFTN MDA-MB-231 (ER −)): 340 nM | IC50 (LIXAH HLE): 229 nM | IC50 (MEXF M14): 1010 nM | IC50 (LXFL NCI-H460): 291 nM | IC50 (MAXFTN MDA-MB-468 (ER −)): 290 nM | IC50 (BXF 5637): 476 nM | IC50 (CXF COLO 205): 148 nM | IC50 (MEXF MDA-MB-435): 296 nM | IC50 (PRXF LNCaP): 116 nM | IC50 (UXF EFE-184): 906 nM
